{
  "source": "paper PMC5329948",
  "about": "“Caspase vinyl sulfone small molecule inhibitors prevent axonal degeneration in human neurons and reverse cognitive impairment in Caspase-6-overexpressing mice” (Molecular Neurodegeneration, 2017)",
  "test_system": "mice hippocampi",
  "assay": "Hippocampal Casp6 substrates, synaptic and glial markers after treatment (western blot, immunohistochemistry)",
  "type": "in vivo, mouse",
  "from_the_text": "Protein extracts from HCT116 cells and human primary neurons were subjected to western blotting analyses. The 10630 (1:10 000) and GN60622 (1:10 000) neoepitope antibodies against the p20 subunit of active Casp6 (Casp6p20) and α-tubulin cleaved by Casp6 (TubΔCasp6) were generated previously in our laboratory. The β-actin clone AC-15 (1:5 000, Sigma-Aldrich, Oakville, ON, CA), Casp6 (1:1 000), Synapsin (1:5 000), full-length α-tubulin (1:1 000, Cell Signalling Technology Inc., Danvers, MA, USA), GFAP (1:3 000, Dako, Burlington, ON, CA), synaptophysin (1:5 000, Sigma, Oakville, ON, CA), and PSD95 clone K28143 (1:5 000, UC Davis/NIH NeuroMab Facility) were purchased. All antibodies were diluted in 5% non-fat dry milk. Secondary anti-mouse (1:5 000, GE Healthcare Life Sciences, Baie D’Urfe, QC, CA) and anti-rabbit antibodies (1:5 000, Dako, Burlington, ON, CA) conjugated to horseradish peroxidase were used to detect immunoreactive proteins using ECL prime western blotting detection reagent (GE Healthcare Life Sciences, Baie D’Urfe, QC, CA) and Kodak BioMax MR film (Kodak, Rochester, NY, USA). Secondary anti-mouse conjugated to alkaline phosphatase (Jackson Immunoresearch Laboratories Inc., West Grove, PA) was developed with nitro-blue tetrazolium (Thermo Fisher Scientific, Waltham, MA, USA) and 5-bromo-4-chloro-3-indolylphosphate (Thermo Fisher Scientific, Waltham, MA, USA) for chromogenic detection of proteins. The western blots were scanned with an HP scanner and the images were not manipulated except to adjust the brightness/contrast and this was done simultaneously to the entire blot. Quantification was performed with the ImageJ software (NIH, Bethesda, MD, USA).\nOnly males were used and littermates from each genotype (wild type (WT)/WT, WT/Cre, & knock-in (KI/)Cre) were tested together. The experimenter was blind to genotype and treatment groups. Mice were administered 20 mg/kg NWL-117 or physiological saline (0.9% NaCl) by intraperitoneal injections two times 48 h apart. […] Blood brain barrier permeability of NWL-117 caspase inhibitor: Briefly, 18–22 month old Casp6 mice were anesthetised with isoflurane, warmed with a heating blanket, and their physiological vitals (heart rate, body temperature, and respiration) monitored. The skin over the mouse’s neck was shaved, xylocaine applied, and an incision was made along the midline. Under a surgical microscope, the right carotid artery was gently separated from surrounding tissue. Two suture threads were placed at the proximal and distal ends of the carotid, and a small incision was made along the carotid wall. A micro-catheter (attached to a 1 ml syringe controlled by a micropump) was inserted and pushed to the entrance of the internal carotid artery. The catheter was secured in place using suture thread. NWL-117 (20 mg/kg) was infused via the micro-catheter using a pump set at 50 μL/min (total volume between 64 μL and 130 μL). After 5 min, blood was collected by intra-cardiac puncture, the mouse was perfused through the heart with ice cold saline for 2–3 min. The brain was removed and hippocampi were dissected and frozen on dry ice and stored. Samples were sent to the Biopharmacy platform at the University of Montreal (Quebec, Canada) for liquid chromatography and tandem mass spectrometry analysis. The integrity of the blood-brain barrier was confirmed by injecting 3% Evan’s blue solution in 20 month old Casp6 mice. […]",
  "data": [
    {"smiles": "CCC(C)[C@H](NC(=O)[C@H](CCC(=O)O)NC(=O)[C@@H](NC(=O)OCc1ccccc1)C(C)C)C(=O)N[C@H](/C=C/S(C)(=O)=O)CC(=O)O", "note": "(some centres unmarked) [NWL-117]", "values": [
      {"measurement": "Synapsin, synaptophysin and PSD95 hippocampal protein levels", "setting": "20 mg/kg i.p.", "result": "unchanged"},
      {"measurement": "TubΔCasp6 immunostaining, CA1, KI/Cre mice", "setting": "20 mg/kg i.p.", "result": "increased non-significantly"},
      {"measurement": "TubΔCasp6 immunostaining, CA1, control mice", "setting": "20 mg/kg i.p.", "result": "non-significantly decreased TubΔCasp6 levels threefold"},
      {"measurement": "GFAP levels", "setting": "KI/Cre mice hippocampal extracts", "result": "did not change"},
      {"measurement": "p97 cleaved by Casp6 (Δp97)", "setting": "KI/Cre mice, versus saline", "result": "not different"}
    ]}
  ]
}
